Source: ChEMBL document CHEMBL4725218, “Deep Learning Enhancing Kinome-Wide Polypharmacology Profiling: Model Construction and Experiment Validation” (J Med Chem, 2020)

How the values were obtained:
[1] = biological target: T1, Homeodomain-interacting protein kinase 4 (Homo sapiens) (UniProt Q8NE63); assay: Inhibition of human HIPK4 assessed as remaining enzyme activity at 1 uM
T1 sequence (whole entry): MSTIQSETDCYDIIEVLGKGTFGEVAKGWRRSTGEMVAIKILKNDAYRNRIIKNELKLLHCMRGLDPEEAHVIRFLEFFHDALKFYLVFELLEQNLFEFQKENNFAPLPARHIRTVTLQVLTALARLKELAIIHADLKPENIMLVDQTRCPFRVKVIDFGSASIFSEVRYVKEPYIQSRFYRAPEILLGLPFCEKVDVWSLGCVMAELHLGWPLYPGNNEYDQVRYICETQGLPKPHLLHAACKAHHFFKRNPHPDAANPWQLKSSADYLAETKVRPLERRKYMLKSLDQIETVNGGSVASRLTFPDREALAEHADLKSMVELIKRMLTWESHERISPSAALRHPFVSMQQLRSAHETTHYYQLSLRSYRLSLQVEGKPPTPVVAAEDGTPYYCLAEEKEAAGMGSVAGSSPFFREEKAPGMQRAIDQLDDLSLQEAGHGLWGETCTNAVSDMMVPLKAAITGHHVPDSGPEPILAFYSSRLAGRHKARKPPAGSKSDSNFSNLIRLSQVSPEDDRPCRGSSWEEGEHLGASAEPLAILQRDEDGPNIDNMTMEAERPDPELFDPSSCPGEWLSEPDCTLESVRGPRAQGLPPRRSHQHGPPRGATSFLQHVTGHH

[2] = biological target: Tyrosine-protein kinase Blk (Mus musculus) (UniProt P16277); assay: Inhibition of mouse BLK assessed as remaining enzyme activity at 1 uM
[3] = biological target: Tyrosine-protein kinase Lyn (Homo sapiens) (UniProt P07948); assay: Inhibition of human LYN assessed as remaining enzyme activity at 1 uM
[4] = biological target: Epithelial discoidin domain-containing receptor 1 (Homo sapiens) (UniProt Q08345); assay: Inhibition of human DDR1 assessed as remaining enzyme activity at 1 uM
[5] = biological target: Homeodomain-interacting protein kinase 2 (Homo sapiens) (UniProt Q9H2X6); assay: Inhibition of human HIPK2 assessed as remaining enzyme activity at 1 uM
[6] = biological target: LIM domain kinase 1 (Homo sapiens) (UniProt P53667); assay: Inhibition of human LIMK1 assessed as remaining enzyme activity at 1 uM
[7] = biological target: Mitogen-activated protein kinase kinase kinase 20 (Homo sapiens) (UniProt Q9NYL2); assay: Inhibition of human ZAK assessed as remaining enzyme activity at 0.1 uM
[8] = biological target: T1, Homeodomain-interacting protein kinase 4 (Homo sapiens); assay: Inhibition of human HIPK4 assessed as remaining enzyme activity at 0.01 uM
[9] = biological target: BDNF/NT-3 growth factors receptor (Homo sapiens) (UniProt Q16620); assay: Inhibition of human TRKB assessed as remaining enzyme activity at 0.01 uM
[10] = biological target: T2, Ephrin type-A receptor 8 (Homo sapiens) (UniProt P29322); assay: Inhibition of human EphA8 assessed as remaining enzyme activity at 0.01 uM
T2 sequence (whole entry): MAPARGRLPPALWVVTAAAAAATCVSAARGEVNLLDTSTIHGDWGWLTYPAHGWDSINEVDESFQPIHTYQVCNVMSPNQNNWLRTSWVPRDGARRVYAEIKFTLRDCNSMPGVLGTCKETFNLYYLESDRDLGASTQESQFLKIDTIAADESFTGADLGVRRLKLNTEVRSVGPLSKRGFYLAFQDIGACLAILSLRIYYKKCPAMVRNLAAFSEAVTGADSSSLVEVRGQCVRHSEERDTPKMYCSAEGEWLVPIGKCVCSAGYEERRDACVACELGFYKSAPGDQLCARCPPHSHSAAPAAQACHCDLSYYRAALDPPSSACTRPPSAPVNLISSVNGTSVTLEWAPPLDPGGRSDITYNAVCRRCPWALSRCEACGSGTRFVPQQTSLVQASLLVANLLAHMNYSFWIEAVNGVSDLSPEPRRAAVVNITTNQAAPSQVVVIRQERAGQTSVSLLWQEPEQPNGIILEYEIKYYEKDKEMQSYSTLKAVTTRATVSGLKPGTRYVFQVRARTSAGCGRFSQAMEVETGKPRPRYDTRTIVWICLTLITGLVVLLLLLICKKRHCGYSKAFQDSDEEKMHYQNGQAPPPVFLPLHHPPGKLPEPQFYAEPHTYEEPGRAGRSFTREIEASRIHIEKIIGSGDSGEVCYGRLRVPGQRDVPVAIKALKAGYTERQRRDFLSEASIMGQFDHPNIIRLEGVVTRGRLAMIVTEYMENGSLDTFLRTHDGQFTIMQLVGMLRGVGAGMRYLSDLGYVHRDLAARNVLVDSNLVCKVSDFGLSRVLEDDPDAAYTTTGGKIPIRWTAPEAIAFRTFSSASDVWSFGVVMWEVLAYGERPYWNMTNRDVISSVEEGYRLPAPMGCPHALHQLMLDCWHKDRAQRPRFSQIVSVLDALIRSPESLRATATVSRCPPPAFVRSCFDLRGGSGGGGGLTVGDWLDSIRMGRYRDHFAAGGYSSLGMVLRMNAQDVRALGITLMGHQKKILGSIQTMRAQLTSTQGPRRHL

[11] = biological target: T3, Muscle, skeletal receptor tyrosine-protein kinase (Homo sapiens) (UniProt O15146); assay: Inhibition of human MuSK assessed as remaining enzyme activity at 0.01 uM
T3 sequence (whole entry): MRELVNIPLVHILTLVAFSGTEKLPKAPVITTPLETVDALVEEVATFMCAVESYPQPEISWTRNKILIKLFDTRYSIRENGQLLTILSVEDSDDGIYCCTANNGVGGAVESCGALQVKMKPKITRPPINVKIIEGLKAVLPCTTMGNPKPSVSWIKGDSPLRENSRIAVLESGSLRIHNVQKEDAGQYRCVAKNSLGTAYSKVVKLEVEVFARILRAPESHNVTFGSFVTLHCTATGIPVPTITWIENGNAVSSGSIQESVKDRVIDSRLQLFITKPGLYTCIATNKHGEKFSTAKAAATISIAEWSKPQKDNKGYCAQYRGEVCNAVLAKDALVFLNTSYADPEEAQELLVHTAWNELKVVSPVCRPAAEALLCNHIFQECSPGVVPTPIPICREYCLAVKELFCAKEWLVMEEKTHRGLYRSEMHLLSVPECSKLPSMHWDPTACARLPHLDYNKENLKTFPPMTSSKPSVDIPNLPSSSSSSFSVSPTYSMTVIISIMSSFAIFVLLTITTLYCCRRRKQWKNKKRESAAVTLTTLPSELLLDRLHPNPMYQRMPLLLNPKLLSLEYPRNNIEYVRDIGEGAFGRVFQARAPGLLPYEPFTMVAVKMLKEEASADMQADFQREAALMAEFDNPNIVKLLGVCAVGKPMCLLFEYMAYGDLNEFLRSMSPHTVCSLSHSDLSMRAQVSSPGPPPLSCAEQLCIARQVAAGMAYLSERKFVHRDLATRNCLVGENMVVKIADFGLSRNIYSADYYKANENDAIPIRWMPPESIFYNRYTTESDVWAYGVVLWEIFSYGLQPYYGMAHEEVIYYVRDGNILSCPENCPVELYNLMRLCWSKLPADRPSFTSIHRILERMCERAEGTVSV

Chain of Tyrosine-protein kinase Lyn (Homo sapiens) (P07948 2-512 limits assumed): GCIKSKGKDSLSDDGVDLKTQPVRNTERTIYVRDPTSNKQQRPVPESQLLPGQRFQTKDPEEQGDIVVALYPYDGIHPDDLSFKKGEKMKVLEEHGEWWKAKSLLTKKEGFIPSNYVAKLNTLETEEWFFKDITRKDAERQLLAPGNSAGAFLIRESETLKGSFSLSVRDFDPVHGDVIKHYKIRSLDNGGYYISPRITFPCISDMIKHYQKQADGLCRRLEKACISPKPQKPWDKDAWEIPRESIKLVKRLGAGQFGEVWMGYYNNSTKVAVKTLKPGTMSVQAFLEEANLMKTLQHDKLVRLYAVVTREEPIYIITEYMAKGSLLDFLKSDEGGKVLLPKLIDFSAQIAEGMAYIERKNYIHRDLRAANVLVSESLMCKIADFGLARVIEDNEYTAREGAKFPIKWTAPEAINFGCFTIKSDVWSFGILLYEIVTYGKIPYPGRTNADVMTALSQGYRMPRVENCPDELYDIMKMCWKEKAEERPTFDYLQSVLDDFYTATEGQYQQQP
Chain of Homeodomain-interacting protein kinase 2 (Homo sapiens) (Q9H2X6 whole entry, looked up, the tested form may be a part): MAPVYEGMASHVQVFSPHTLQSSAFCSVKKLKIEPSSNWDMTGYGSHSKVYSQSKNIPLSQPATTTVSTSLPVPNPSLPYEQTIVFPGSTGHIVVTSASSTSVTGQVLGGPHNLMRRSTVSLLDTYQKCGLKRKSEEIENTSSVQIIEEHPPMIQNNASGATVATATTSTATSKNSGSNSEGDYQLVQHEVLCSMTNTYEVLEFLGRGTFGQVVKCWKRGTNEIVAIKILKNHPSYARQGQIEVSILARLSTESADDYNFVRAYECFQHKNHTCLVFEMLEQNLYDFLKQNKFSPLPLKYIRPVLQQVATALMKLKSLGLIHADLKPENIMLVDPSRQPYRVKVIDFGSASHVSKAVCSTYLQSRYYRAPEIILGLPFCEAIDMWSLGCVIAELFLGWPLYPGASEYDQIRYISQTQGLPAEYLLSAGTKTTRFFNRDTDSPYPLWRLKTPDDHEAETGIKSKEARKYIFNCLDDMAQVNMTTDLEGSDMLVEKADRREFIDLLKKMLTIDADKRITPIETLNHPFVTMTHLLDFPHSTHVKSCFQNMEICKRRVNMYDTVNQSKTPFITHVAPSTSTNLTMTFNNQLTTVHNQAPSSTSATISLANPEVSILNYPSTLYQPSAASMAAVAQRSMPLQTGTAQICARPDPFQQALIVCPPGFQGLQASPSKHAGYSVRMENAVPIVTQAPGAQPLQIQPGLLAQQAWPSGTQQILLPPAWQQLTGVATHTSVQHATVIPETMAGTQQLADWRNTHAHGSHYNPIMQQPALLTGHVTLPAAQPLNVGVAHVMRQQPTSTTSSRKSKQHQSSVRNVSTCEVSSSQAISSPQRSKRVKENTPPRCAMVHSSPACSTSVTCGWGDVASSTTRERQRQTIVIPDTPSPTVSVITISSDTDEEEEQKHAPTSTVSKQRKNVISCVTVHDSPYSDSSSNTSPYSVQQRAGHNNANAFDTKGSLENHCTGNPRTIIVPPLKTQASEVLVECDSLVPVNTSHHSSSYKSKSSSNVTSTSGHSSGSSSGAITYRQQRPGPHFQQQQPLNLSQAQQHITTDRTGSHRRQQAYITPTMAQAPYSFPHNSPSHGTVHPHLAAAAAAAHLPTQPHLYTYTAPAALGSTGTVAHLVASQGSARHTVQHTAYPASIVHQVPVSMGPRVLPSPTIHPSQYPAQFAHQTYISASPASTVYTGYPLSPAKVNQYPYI
Chain of Epithelial discoidin domain-containing receptor 1 (Homo sapiens) (Q08345 whole entry, the tested form may be a part): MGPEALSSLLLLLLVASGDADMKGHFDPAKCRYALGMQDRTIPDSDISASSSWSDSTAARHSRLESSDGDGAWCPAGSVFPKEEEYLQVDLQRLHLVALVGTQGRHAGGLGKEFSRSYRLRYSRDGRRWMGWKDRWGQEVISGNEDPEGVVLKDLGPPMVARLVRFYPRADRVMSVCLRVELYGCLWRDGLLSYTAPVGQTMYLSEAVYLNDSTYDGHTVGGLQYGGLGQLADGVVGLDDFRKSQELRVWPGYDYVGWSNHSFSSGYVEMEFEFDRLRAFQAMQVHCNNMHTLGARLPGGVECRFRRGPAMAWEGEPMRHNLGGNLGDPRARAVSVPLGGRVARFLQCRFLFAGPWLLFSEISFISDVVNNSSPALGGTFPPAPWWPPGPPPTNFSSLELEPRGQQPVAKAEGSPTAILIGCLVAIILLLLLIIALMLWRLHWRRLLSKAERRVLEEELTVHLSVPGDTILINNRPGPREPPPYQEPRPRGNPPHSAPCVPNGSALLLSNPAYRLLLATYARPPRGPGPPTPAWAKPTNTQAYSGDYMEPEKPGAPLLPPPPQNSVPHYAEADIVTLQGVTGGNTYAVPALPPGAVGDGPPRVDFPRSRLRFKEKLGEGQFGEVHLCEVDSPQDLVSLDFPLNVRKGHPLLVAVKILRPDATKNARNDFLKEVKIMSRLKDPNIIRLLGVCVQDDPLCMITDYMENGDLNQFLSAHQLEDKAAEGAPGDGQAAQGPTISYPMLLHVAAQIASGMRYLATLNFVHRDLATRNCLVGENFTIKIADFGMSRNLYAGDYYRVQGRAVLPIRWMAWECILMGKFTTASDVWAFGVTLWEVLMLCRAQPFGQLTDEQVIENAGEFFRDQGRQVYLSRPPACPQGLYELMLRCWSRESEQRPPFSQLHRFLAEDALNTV
Chain of BDNF/NT-3 growth factors receptor (Homo sapiens) (Q16620 32-822 limits assumed): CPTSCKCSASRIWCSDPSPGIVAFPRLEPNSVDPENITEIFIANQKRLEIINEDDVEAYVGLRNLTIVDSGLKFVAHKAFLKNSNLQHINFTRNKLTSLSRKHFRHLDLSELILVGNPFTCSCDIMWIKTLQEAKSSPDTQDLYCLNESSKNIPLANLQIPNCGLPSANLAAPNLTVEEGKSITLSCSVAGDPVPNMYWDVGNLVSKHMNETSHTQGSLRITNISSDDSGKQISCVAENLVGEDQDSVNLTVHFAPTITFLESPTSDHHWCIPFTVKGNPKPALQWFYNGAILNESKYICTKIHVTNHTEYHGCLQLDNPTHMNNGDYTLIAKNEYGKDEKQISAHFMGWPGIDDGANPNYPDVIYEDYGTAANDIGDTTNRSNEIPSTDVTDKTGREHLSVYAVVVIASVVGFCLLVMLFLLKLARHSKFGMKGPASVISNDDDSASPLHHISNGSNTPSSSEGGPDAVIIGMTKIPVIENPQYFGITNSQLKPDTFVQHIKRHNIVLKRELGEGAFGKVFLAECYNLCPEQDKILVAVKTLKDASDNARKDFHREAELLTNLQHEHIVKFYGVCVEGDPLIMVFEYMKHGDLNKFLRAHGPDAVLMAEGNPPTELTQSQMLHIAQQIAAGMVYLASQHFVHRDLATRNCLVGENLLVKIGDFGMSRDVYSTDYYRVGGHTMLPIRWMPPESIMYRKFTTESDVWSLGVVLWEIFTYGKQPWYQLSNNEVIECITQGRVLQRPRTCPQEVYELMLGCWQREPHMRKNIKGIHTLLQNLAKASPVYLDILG
Chain of Tyrosine-protein kinase Blk (Mus musculus) (P16277 whole entry): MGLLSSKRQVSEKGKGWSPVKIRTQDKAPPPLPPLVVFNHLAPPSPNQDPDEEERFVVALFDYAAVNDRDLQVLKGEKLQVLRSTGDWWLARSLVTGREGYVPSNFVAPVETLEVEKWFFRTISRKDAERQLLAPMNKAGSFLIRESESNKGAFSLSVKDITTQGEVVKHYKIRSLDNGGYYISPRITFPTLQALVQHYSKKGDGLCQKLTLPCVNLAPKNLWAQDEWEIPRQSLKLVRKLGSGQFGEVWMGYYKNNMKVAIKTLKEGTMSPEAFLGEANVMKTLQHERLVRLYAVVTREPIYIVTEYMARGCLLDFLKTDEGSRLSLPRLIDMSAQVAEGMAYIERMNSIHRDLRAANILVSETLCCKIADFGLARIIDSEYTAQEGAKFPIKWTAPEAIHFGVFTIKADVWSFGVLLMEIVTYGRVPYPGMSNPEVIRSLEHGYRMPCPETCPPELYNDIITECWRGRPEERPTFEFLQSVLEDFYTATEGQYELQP
Chain of Mitogen-activated protein kinase kinase kinase 20 (Homo sapiens) (Q9NYL2 2-800 limits assumed): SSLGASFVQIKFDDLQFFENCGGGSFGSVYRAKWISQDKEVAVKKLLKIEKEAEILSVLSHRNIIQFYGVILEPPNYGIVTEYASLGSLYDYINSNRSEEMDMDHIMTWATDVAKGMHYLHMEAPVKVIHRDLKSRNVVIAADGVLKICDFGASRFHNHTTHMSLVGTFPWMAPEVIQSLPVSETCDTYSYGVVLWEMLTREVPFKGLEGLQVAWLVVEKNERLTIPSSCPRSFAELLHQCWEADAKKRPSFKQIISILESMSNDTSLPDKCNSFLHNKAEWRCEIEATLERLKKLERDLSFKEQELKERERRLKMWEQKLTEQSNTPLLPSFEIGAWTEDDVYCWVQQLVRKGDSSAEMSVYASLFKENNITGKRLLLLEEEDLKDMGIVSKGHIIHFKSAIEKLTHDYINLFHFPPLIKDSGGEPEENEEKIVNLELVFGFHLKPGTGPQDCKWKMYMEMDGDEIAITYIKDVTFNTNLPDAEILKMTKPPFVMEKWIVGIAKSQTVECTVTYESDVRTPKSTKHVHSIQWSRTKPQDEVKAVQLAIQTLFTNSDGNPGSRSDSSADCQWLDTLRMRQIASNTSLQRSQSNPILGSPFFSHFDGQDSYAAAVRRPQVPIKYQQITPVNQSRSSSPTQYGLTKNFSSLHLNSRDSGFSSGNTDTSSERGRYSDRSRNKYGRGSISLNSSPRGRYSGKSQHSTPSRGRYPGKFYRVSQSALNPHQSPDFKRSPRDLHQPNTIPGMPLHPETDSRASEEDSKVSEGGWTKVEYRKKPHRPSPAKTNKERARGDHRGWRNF

Activity [1]: -1%
Activity [2]: 1%
Activity [3]: 1%
Activity [4]: 11%
Activity [5]: 13%
Activity [6]: 46%
Activity [7]: 2%
Activity [8]: 31%
Activity [9]: 100%
Activity [10]: 85%
Activity [11]: 89%
SMILES: CNC(=O)c1cc(Oc2ccc(NC(=O)Nc3ccc(Cl)c(C(F)(F)F)c3)c(F)c2)ccn1
